Legend:
[1] = test system: lung cancer cell line H441; test: In vivo cancer model: subcutaneous xenograft of lung cancer cell line H441, tumor volume; set-up: species or system mice; key to Mean Tumor Volume(T) / Median Tumor Volume(T): tumor volume in mm³; conditions: oral gavage, 30 days; for Mean Tumor Volume(T) / Median Tumor Volume(T): in mm³ (unit assumed)
Protocol: (§1) To assess the in vivo effects of the compounds, subcutaneous xenograft of lung cancer cell line H441 was generated. Cells (5×10^6) were injected into the right flank of 6- to 8-week-old male BALB/c nu/nu mice (Charles River, Wilmington, Mass.). Tumor volume was assessed twice a week by caliper measurement. Mice were randomized to treatment groups based on initial tumor volume average of 100 mm^3 per group. Mice were dosed by oral gavage with 15 mg/kg Example 1a QD, 15 mg/kg Example 1a BID, 50 mg/kg Example 1a QD, or 50 mg/kg Example 3a QD. Mouse tumors were measured twice a week for the duration of the study. Mouse body weights were recorded weekly and percentage of mice body weights during treatment was calculated as: weight at each time point/initial weight×100. […] Mice underwent treatment for 30 days and were sacrificed 2 hours after the last dose. Tumors were then excised and cut for both formalin-fixation and snap frozen in liquid nitrogen. […] No statistically significant toxicity was observed as judged from animal body weights of compound treated groups versus vehicle control group as shown in Table B below.

A549luc cells = test: Colony formation (clonogenic) assay, A549luc cells; type: cell-based; conditions: Homo sapiens, 168 h; A549 luc, harvested 7 days after initial treatment
Protocol: (§2) Protocol for clonogenic assay follows Sangodkar et al., J Clin Invest 2012; 122:2637-51.
(§3) Cell culture and staining: For both A549luc and H1650 cells, 500 cells are seeded into each well of a 6-well plate and allowed to attach for 24 hours before drug treatment. The following day, cells are treated with either the appropriate dose of drug or an equivalent volume of DMSO (two replicates were treated for each condition). For each condition, depleted media was replaced with fresh media containing the equivalent drug dose four days after initial treatment. Cells are harvested either 7 (A549 luc) or 8 (H1650) days after initial treatment. Briefly, medium is aspirated from each well and the cells are washed twice with ice-cold PBS, then plates are allowed to dry at room temperature for 4 hours. Cells are fixed for one hour in a fixing solution consisting of 10% methanol and 10% glacial acetic acid in distilled water, then stained overnight in 1% (w/v) crystal violet dissolved in methanol. The next day, staining solution is aspirated from the wells and plates are washed gently with distilled water to remove excess stain before colony counting. Colonies are imaged on a ChemiDoc XRS+ (Bio-Rad) and images are exported as 8-bit TIFF files. Colonies are counted using the Colony Counter plugin in ImageJ, with colony size defined as between 4 and 400 square pixels, and minimum circularity set at 0.6. Duplicate wells are averaged to obtain a single value for each condition. Results (number of colonies) for A549 luc cells and results (number of colonies) for H1650 cells may be analyzed separately.

[2] = In vivo cancer model: body weights and signs of toxicity; set-up: species or system mice; conditions: for % T/C (Mean body weight) / % T/C (Median body weight) / Mean body weight / Median body weight: oral gavage; for signs of toxicity (mucous diarrhea, abdominal stiffness and weight loss): oral gavage 15 or 50 mg/kg, 30 days, BALB/c nu/nu mice
Protocol: as §1

H1650 lung cancer cells = test: Cell viability assay (MTT), H1650 lung cancer cells; type: cell-based; conditions: Homo sapiens, NCI-H1650; H1650 cells
Protocol: Cell Viability Assays (IC50 Determination)
Cell viability assays were performed according to Denizot, F. and R. Lang, Journal of Immunological Methods, 1986. 89(22): p. 271-277. H1650 lung cancer cells were plated at 150,000 cells per well in a 12 well plate. Twenty-four hours after plating, cells were treated as described with increasing concentrations of drug and control. Forty-eight hours after drug treatment, cells were treated with 100 μL of 3-(4,5-Dimethylthiazol-2-yl)-2,5-diphenyltetrazolium bromide (MTT) and incubated for 2 hours at 37 C. The MTT solution was subsequently replaced with 300 μL of n-propyl alcohol and re-aliquoted to a 96 well plate. Spectrophotometric analysis of each solution was performed using a 96 well plate reader at 600 nm in triplicate.

H1650 cells = test: Colony formation (clonogenic) assay, H1650 cells; type: cell-based; conditions: Homo sapiens, NCI-H1650, 192 h; H1650, harvested 8 days after initial treatment
Protocol: as §2, §3

[3] = 50 mg/kg QD, H441 xenograft mice

| Structure (SMILES) | % T/C (Mean Tumor Volume) ([1]; 50 mg/kg QD) | % T/C (Median Tumor Volume) ([1]; 50 mg/kg QD) | Mean Tumor Volume(T) ([1]; 50 mg/kg QD, BALB/c nu/nu mice) | Median Tumor Volume(T) ([1]; 50 mg/kg QD) | GI50 (A549luc cells) | % T/C (Mean body weight) ([2]; 50 mg/kg QD) | % T/C (Median body weight) ([2]; 50 mg/kg QD) | Median body weight ([2]; 50 mg/kg QD) | Mean body weight [2, 3] | signs of toxicity (mucous diarrhea, abdominal stiffness and weight loss) [2] | GI50 (H1650 lung cancer cells) | GI50 (H1650 cells) | other results |
| --- | --- | --- | --- | --- | --- | --- | --- | --- | --- | --- | --- | --- | --- |
| O=S(=O)(N[C@@H]1CCC[C@H](N2c3ccccc3Oc3ccccc32)[C@H]1O)c1ccc(OC(F)(F)F)cc1 (single isomer, unassigned) [Example 1a] | 36.50% | 33.78% | 441.37 | 338.69 | 7.5 µM | 100.59% | 99.72% | 35.50 g | 35.06 g | no adverse signs were observed | 5 µM | 5 µM | % T/C (Mean Tumor Volume) ([1]; 15 mg/kg BID): 26.08%; % T/C (Median Tumor Volume) ([1]; 15 mg/kg BID): 27.37%; Mean Tumor Volume(T) ([1]; 15 mg/kg BID): 315.40; Median Tumor Volume(T) ([1]; 15 mg/kg BID): 274.43; % T/C (Mean Tumor Volume) ([1]; 15 mg/kg QD): 61.43%; % T/C (Median Tumor Volume) ([1]; 15 mg/kg QD): 60.69%; Mean Tumor Volume(T) ([1]; 15 mg/kg QD): 742.80; Median Tumor Volume(T) ([1]; 15 mg/kg QD): 608.58; % T/C (Mean body weight) ([2]; 15 mg/kg BID): 95.27%; % T/C (Median body weight) ([2]; 15 mg/kg BID): 99.58%; Mean body weight ([2]; 15 mg/kg BID): 33.20 g; Median body weight ([2]; 15 mg/kg BID): 35.45 g; % T/C (Mean body weight) ([2]; 15 mg/kg QD): 95.27%; % T/C (Median body weight) ([2]; 15 mg/kg QD): 93.68%; Mean body weight ([2]; 15 mg/kg QD): 33.20 g; Median body weight ([2]; 15 mg/kg QD): 33.35 g |
| O=S(=O)(N[C@@H]1CCC[C@H](n2c3ccccc3c3ccccc32)[C@H]1O)c1ccc(OC(F)(F)F)cc1 (single isomer, unassigned) [Example 3a] | 32.13% | 37.62% | 388.47 | 377.21 | 7.5 µM | 93.96% | 92.70% | 33.00 g | 32.74 g | no adverse signs were observed | 10 µM | 5 µM |  |

From patent US9937186B2, “Sulfonamides derived from tricyclyl-2-aminocycloalkanols as anticancer agents” (ICAHN SCHOOL OF MEDICINE AT MOUNT SINAI, priority 2014, dated 2018)
